Results published in patent US6770020B2 (priority 2001, dated 2004).

Tests used:
[1] = rats; cited from earlier work
[2] = test system: human glioblastoma cells (TB 10); assay: TOF-SIMS analysis of Gd in individual cells; assay type: cell-based
Excerpt: Time of Flight Secondary Ion Mass-Spectrometry (TOF-SIMS), another technique for microchemical analysis^(22) was utilized to validate data from MEPHISTO spectromicroscopy, in addition to the ICP-MS data. Cell samples were bombarded with either 15 or 25 keV Ga^+ ions, focused in a microscopic beam, which induced desorption of the surface atoms. The emitted ions were then accelerated, and detected by a high resolution mass spectrometer. By scanning the microscopic Ga ion beam, TOF-SIMS produced images of the cell surface, and distribution maps of specific element isotopes, with a spatial resolution of […]. High resolution mass spectra were obtained from microscopic areas, selected as the region of interest in the cell images, to allow quantitative comparison of Gd concentration in sub-cellular regions.
The results obtained in MEPHISTO were corroborated by the TOF-SIMS) data, an independent technique to evaluate elemental distributions at a microscopic scale. Two cells were studied from one of the etched 72-hour exposure samples used in the MEPHISTO experiment. Note in the table that the concentration of Gd is consistently higher in nuclei than in cytoplasm.
TOF-SIMS analysis of a non-etched cell at the nucleus position (also Gd-exposed for 72 hours), was performed before and after strong sputtering to probe the Gd concentration on the membrane and inside the nucleus. The total Gd ion yield, calculated as for the first column of Table 2, gave 0.055 cts/s on the unsputtered sample.
After 30 second sputtering (with 25 keV Ga˜ ions) to remove surface contamination, the total Gd ion yield from the cell membrane was 0.182 cts/s. After 16 minute sputtering to penetrate about […] into the nucleus, the total Gd ion yield was 1.844 cts/s.

[3] = test system: human glioblastoma cells (TB 10); assay: ICP-MS Gd uptake by glioblastoma cell cultures exposed to Gd-DTPA; details: for cellular Gd concentration: 10 mg/ml Gd-DTPA
[4] = Cell 1, Cytoplasm, 72 hours exposure
[5] = Cell 1, Nucleus, 72 hours exposure
[6] = Cell 2, Cytoplasm, 72 hours exposure
[7] = Cell 2, Nucleus, 72 hours exposure

O=C([O-])CN(CCN(CC(=O)[O-])CC(=O)O)CCN(CC(=O)[O-])CC(=O)O.[Gd+3] [Gd-DTPA, gadolinium diethylene triamine pentaacetic acid]
LD50 [1]: 20 mmol/kg
Ratio nucleus:cytoplasm, ^155Gd ([2]; Cell 1, 72 hours exposure): 2.51
Ratio nucleus:cytoplasm, ^155GdO ([2]; Cell 1, 72 hours exposure): 2.52
Ratio nucleus:cytoplasm, ^156Gd ([2]; Cell 1, 72 hours exposure): 1.89
Ratio nucleus:cytoplasm, ^156GdO ([2]; Cell 1, 72 hours exposure): 2.03
Ratio nucleus:cytoplasm, ^157GdO ([2]; Cell 1, 72 hours exposure): 2.06
Ratio nucleus:cytoplasm, ^158Gd ([2]; Cell 1, 72 hours exposure): 1.53
Ratio nucleus:cytoplasm, ^160Gd ([2]; Cell 1, 72 hours exposure): 1.99
Ratio nucleus:cytoplasm, ^160GdO ([2]; Cell 1, 72 hours exposure): 2.00
Ratio nucleus:cytoplasm, total Gd ion yield ([2]; Cell 1, 72 hours exposure): 2.02
Detection Rate, ^155Gd [2, 4]: 0.41 Counts/s
Detection Rate, ^155GdO [2, 4]: 0.63 Counts/s
Detection Rate, ^156Gd [2, 4]: 0.91 Counts/s
Detection Rate, ^156GdO [2, 4]: 0.91 Counts/s
Detection Rate, ^157GdO [2, 4]: 2.08 Counts/s
Detection Rate, ^158Gd [2, 4]: 0.89 Counts/s
Detection Rate, ^160Gd [2, 4]: 0.68 Counts/s
Detection Rate, ^160GdO [2, 4]: 0.94 Counts/s
Detection Rate, total Gd ion yield [2, 4]: 6.44 Counts/s
Detection Rate, ^155Gd [2, 5]: 1.03 Counts/s
Detection Rate, ^155GdO [2, 5]: 1.59 Counts/s
Detection Rate, ^156Gd [2, 5]: 1.72 Counts/s
Detection Rate, ^156GdO [2, 5]: 1.85 Counts/s
Detection Rate, ^157GdO [2, 5]: 2.23 Counts/s
Detection Rate, ^158Gd [2, 5]: 1.36 Counts/s
Detection Rate, ^160Gd [2, 5]: 1.35 Counts/s
Detection Rate, ^160GdO [2, 5]: 1.88 Counts/s
Detection Rate, total Gd ion yield [2, 5]: 12.98 Counts/s
Ratio nucleus:cytoplasm, ^155Gd ([2]; Cell 2, 72 hours exposure): 1.60
Ratio nucleus:cytoplasm, ^155GdO ([2]; Cell 2, 72 hours exposure): 1.34
Ratio nucleus:cytoplasm, ^156Gd ([2]; Cell 2, 72 hours exposure): 1.86
Ratio nucleus:cytoplasm, ^156GdO ([2]; Cell 2, 72 hours exposure): 1.41
Ratio nucleus:cytoplasm, ^157GdO ([2]; Cell 2, 72 hours exposure): 1.56
Ratio nucleus:cytoplasm, ^158Gd ([2]; Cell 2, 72 hours exposure): 1.84
Ratio nucleus:cytoplasm, ^160Gd ([2]; Cell 2, 72 hours exposure): 1.63
Ratio nucleus:cytoplasm, ^160GdO ([2]; Cell 2, 72 hours exposure): 1.72
Ratio nucleus:cytoplasm, total Gd ion yield ([2]; Cell 2, 72 hours exposure): 1.60
Detection Rate, ^155Gd [2, 6]: 0.23 Counts/s
Detection Rate, ^155GdO [2, 6]: 0.38 Counts/s
Detection Rate, ^156Gd [2, 6]: 0.37 Counts/s
Detection Rate, ^156GdO [2, 6]: 0.51 Counts/s
Detection Rate, ^157GdO [2, 6]: 0.57 Counts/s
Detection Rate, ^158Gd [2, 6]: 0.32 Counts/s
Detection Rate, ^160Gd [2, 6]: 0.33 Counts/s
Detection Rate, ^160GdO [2, 6]: 0.5 Counts/s
Detection Rate, total Gd ion yield [2, 6]: 3.21 Counts/s
Detection Rate, ^155Gd [2, 7]: 0.37 Counts/s
Detection Rate, ^155GdO [2, 7]: 0.51 Counts/s
Detection Rate, ^156Gd [2, 7]: 0.69 Counts/s
Detection Rate, ^156GdO [2, 7]: 0.72 Counts/s
Detection Rate, ^157GdO [2, 7]: 0.89 Counts/s
Detection Rate, ^158Gd [2, 7]: 0.59 Counts/s
Detection Rate, ^160Gd [2, 7]: 0.54 Counts/s
Detection Rate, ^160GdO [2, 7]: 0.86 Counts/s
Detection Rate, total Gd ion yield [2, 7]: 5.13 Counts/s
total Gd ion yield ([2]; non-etched cell at the nucleus position, 72 hours exposure, unsputtered sample): 0.055 cts/s
total Gd ion yield from the cell membrane ([2]; non-etched cell, 72 hours exposure, after 30 second sputtering): 0.182 cts/s
total Gd ion yield ([2]; non-etched cell, 72 hours exposure, after 16 minute sputtering to penetrate about 1 pm into the nucleus): 1.844 cts/s
cellular Gd concentration ([3]; 120-hour exposure (maximum)): 600 µg/mL
cellular Gd concentration ([3]; after 24 hours): more than 250 μg/ml
cellular Gd concentration vs. exposure time ([3]; 10 mg/ml, up to 120 hours, FIG. 1): increases with the exposure time
concentration of uptaken Gd vs. exposure concentration ([3]; 1 to 25 mg/ml Gd-DTPA, 72 hours, FIG. 3): increases with the exposure concentration
maximum cellular concentration relative to the 250 μg/ml recommended for GdNCT ([3]; 120-hour exposure): 2.4 times
